Measurements reported in patent US20230117592A1 (SRI International, priority 2019, published 2023).
Several values for one entry are separate records, joined by “and”; a condition that tells them apart may be missing. Equal values may be shown once.

Legend:
5-LOX = target: T1, 5-LOX (Homo sapiens, UniProt P09917); experiment: 5-LOX fluorescent assay (in vitro lipoxygenase inhibition); type: biochemical; settings: recombinant 5-LOX cell lysate, 20 μM AA, DHR123 fluorescence; several values in a cell = repeat determinations; read-out: IC50 (μM) values for in vitro lipoxygenase inhibition, 5-LOX
T1 sequence (P09917 1-674): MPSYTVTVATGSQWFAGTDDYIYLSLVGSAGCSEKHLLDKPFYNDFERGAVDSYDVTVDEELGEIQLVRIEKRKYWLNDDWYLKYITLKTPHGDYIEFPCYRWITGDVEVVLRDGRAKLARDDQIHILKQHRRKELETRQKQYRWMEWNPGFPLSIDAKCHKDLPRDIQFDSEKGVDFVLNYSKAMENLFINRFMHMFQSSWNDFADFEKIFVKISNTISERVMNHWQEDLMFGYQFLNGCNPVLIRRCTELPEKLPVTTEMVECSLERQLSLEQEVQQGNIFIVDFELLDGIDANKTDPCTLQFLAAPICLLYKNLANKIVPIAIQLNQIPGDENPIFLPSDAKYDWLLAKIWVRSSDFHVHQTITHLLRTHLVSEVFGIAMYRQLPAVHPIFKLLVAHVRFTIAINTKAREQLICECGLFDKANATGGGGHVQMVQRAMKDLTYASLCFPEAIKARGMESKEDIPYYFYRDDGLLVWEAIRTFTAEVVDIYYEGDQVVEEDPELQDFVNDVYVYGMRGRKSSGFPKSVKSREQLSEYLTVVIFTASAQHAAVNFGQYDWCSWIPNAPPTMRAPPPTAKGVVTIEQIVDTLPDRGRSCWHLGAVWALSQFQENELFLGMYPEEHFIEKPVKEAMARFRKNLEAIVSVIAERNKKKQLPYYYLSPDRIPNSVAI
How it was run: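 Recombinant human 5-LOX cell lysate pre-incubated 15 min with inhibitor in 50 mM Tris pH 7.5, 0.1 mM EDTA, 0.3 mM CaCl2. Reaction started with 20 μM arachidonic acid plus 100 μM ATP, with 1 μM DHR123 as fluorescent probe. IC50 from percent inhibition per dose via 4-parameter logistic or sigmoidal dose-response fit.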

12-LOX = target: T2, 12-LOX (Homo sapiens, UniProt P18054); experiment: 12-LOX fluorescent assay (in vitro lipoxygenase inhibition); type: biochemical; settings: 100 nM recombinant 12-LOX, 20 μM AA, DHR123 fluorescence; several values in a cell = repeat determinations; read-out: IC50 (μM) values for in vitro lipoxygenase inhibition, 12-LOX
T2 sequence (P18054 1-663): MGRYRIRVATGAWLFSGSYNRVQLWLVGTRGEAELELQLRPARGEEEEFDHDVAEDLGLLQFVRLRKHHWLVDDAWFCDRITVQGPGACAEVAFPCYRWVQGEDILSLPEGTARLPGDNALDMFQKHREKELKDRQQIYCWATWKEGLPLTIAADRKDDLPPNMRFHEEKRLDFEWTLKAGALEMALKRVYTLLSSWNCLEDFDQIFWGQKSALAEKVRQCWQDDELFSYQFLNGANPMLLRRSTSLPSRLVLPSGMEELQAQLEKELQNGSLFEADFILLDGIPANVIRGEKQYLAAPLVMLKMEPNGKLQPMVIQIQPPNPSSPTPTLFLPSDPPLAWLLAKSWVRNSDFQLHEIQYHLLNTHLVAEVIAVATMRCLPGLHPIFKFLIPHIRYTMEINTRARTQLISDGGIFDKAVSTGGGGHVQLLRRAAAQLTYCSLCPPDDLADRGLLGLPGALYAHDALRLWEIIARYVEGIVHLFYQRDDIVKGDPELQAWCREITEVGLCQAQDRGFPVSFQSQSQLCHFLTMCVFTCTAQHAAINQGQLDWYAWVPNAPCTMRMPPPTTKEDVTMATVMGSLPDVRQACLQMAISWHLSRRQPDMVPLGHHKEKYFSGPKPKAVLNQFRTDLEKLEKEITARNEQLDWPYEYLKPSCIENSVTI
How it was run: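 Fluorescent assay in 50 mM Tris pH 7.5, 0.05% Tween-20, with 100 nM recombinant 12-LOX preincubated 15 min with inhibitor. Reaction was started with 20 μM arachidonic acid substrate and 1 μM DHR123. Percent inhibition per dose was fitted by 4-parameter logistic or sigmoidal dose-response for IC50.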

| SMILES | IC50 (5-LOX) | IC50 (12-LOX) |
| --- | --- | --- |
| c1cc(NCCCn2cncn2)cc(NC2CCCCC2)c1 [SS20308-0238-01, N^1-(3-(1H-1,2,4-triazol-1-yl)propyl)-N^3-cyclohexylbenzene-1,3-diamine] | 0.4 µM | 0.17 µM |
| Fc1ccc(Nc2ccc3c(c2)N(CCn2cncn2)CC3)cc1 [SS20308-0201-01, 1-(2-(1H-1,2,4-triazol-1-yl)ethyl)-N-(4-fluorophenyl)indolin-6-amine] | 0.19 µM | 0.05 µM |
| CCOC(=O)c1ccc(Nc2ccccc2OCCn2cncn2)cc1 [SS20308-0033-01, ethyl 4-(2-(2-(1H-1,2,4-triazol-1-yl)ethoxy)phenylamino)benzoate] | 50.3 µM | 23.9 µM |
| OCCc1ccccc1-c1ccc(Nc2ccccc2)cc1NCCn1cncn1 [SS20308-0149-01, 2-(2′-(2-(1H-1,2,4-triazol-1-yl)ethylamino)-4′-(phenylamino)biphenyl-2-yl)ethanol] | 0.63 µM | 0.3 µM |
| O=C(CCn1cncn1)Nc1cc(Nc2ccccc2)ccc1-c1ccccc1 [SS20308-0134-01, N-(4-(phenylamino)-[1,1′-biphenyl]-2-yl)-3-(1H-1,2,4-triazol-1-yl)propanamide] | 2.32 µM | 1.49 µM |
| c1ccc(Nc2cccc(-c3ccccc3)c2NCCn2cncn2)cc1 [SS20308-0153-01, N^2-(2-(1H-1,2,4-triazol-1-yl)ethyl)-N^3-phenylbiphenyl-2,3-diamine] | 0.71 µM | 0.2 µM |
| FC(F)(F)C(Nc1ccc(NCCCN2CCOCC2)c(C2CCCCC2)c1)c1ccccc1 (centres unmarked) [SS20308-0325-01, 2-cyclohexyl-N^1-(3-morpholinopropyl)-N^4-(2,2,2-trifluoro-1-phenylethyl)benzene-1,4-diamine] | 0.04 µM | 0.03 µM |
| c1ccc(-c2ccc(NC3CCCCC3)cc2NCCn2cncn2)cc1 [SS20308-0200-01, N^2-(2-(1H-1,2,4-triazol-1-yl)ethyl)-N^4-cyclohexylbiphenyl-2,4-diamine] | 0.4 µM | 0.17 µM |
| c1ccc(CNc2cnc(NCCn3cncn3)c(-c3ccccc3)c2)cc1 [SS20308-0212-01, N^2-(2-(1H-1,2,4-triazol-1-yl)ethyl)-N^5-benzyl-3-phenylpyridine-2,5-diamine] | 2.93 µM | 1.61 µM |
| CN(C)CCCc1c(NCc2ccc(F)cc2)cccc1-c1cccc2c1NCC2 [SS20308-0253-01, 2-(3-(dimethylamino)propyl)-N-(4-fluorobenzyl)-3-(indolin-7-yl)aniline] | 0.31 µM | 0.29 µM |
| CN(C)CCNc1cc(Nc2ccccc2)ccc1-c1ccccc1 [SS20308-0130-01, N2-(2-(dimethylamino)ethyl)-N4-phenyl-[1,1′-biphenyl]-2,4-diamine] | 0.24 µM | 0.25 µM |
| Fc1ccc(Nc2ccc(-c3ccccc3)c(NCCn3cncn3)c2)cc1 [SS20308-0142-01, N^2-(2-(1H-1,2,4-triazol-1-yl)ethyl)-N^4-(4-fluorophenyl)biphenyl-2,4-diamine] | 0.18 µM and 0.34 µM | 0.09 µM and 0.17 µM |
| Fc1ccc(Nc2ccc(NCCCN3CCOCC3)c(C(F)(F)F)c2)cc1 [SS20308-0316-01, N^4-(4-fluorophenyl)-N^1-(3-morpholinopropyl)-2-(trifluoromethyl)benzene-1,4-diamine] | 0.07 µM | 0.03 µM |
| Fc1ccc(CNc2ccc(NCCn3cncn3)c(-c3ccccc3)c2F)cc1 [SS20308-0228-01, N^2-(2-(1H-1,2,4-triazol-1-yl)ethyl)-6-fluoro-N^5-(4-fluorobenzyl)-[1,1′-biphenyl]-2,5-diamine] | 0.16 µM | 0.02 µM |
| COc1ccc(CNc2cccc(N)c2OCCN(C)C)cc1 [SS20308-0025-01, 2-(2-(dimethylamino)ethoxy)-N^1-(4-methoxybenzyl)benzene-1,3-diamine] | 7.31 µM | 1.29 µM |
| CN(C)CCOc1c(NCc2ccccc2)cccc1Nc1ncccc1Cl [SS20308-0071-01, N^1-benzyl-N^3-(3-chloropyridin-2-yl)-2-(2-(dimethylamino)ethoxy)benzene-1,3-diamine] | 5.73 µM | 4.9 µM |
| Cc1cc(Nc2ccc(Cl)c(F)c2)ccc1NCC1(Cn2cncn2)COC1 [SS20308-0308-01, N^1-((3-((1H-1,2,4-triazol-1-yl)methyl)oxetan-3-yl)methyl)-N^4-(4-chloro-3-fluorophenyl)-2-methylbenzene-1,4-diamine] | 0.04 µM and 0.03 µM and 0.05 µM and 0.09 µM | 20 nM (2×) and 50 nM and 60 nM |
| Fc1ccc(CNc2cc(-c3ccccc3)c(NCCn3cncn3)cc2F)cc1 [SS20308-0229-01, N2-(2-(1H-1,2,4-triazol-1-yl)ethyl)-4-fluoro-N5-(4-fluorobenzyl)-[1,1′-biphenyl]-2,5-diamine] | 0.08 µM and 0.26 µM | 0.02 µM |
| COc1ccccc1-c1ccc(Nc2ccccc2)cc1NCCn1cncn1 [SS20308-0144-01, N^2-(2-(1H-1,2,4-triazol-1-yl)ethyl)-2′-methoxy-N^4-phenylbiphenyl-2,4-diamine] | 0.4 µM | 0.18 µM |
| Fc1ccc(Nc2ccc(NCC3(Cn4cncn4)COC3)c(OC(F)(F)F)c2)cc1 [SS20308-0319-01, N^1-((3-((1H-1,2,4-triazol-1-yl)methyl)oxetan-3-yl)methyl)-N^4-(4-fluorophenyl)-2-(trifluoromethoxy)benzene-1,4-diamine] | 0.15 µM | 0.05 µM |
| c1cc(NCC2(Cn3cncn3)COC2)cc(NC2CCCCC2)c1 [SS20308-0241-01, N^1-((3-((1H-1,2,4-triazol-1-yl)methyl)oxetan-3-yl)methyl)-N^3-cyclohexylbenzene-1,3-diamine] | 1.09 µM | 0.36 µM |
| FC(F)(F)C(Nc1ccc(NCCn2cncn2)c(-c2ccccc2)c1)c1ccccc1 (centres unmarked) [SS20308-0226-01, N^2-(2-(1H-1,2,4-triazol-1-yl)ethyl)-N^5-(2,2,2-trifluoro-1-phenylethyl)-[1,1′-biphenyl]-2,5-diamine] | 0.14 µM | 0.06 µM |
| Cc1noc(C)c1-c1ccc(Nc2ccccc2)cc1NCCn1cncn1 [SS20308-0192-01, N^3-(2-(1H-1,2,4-triazol-1-yl)ethyl)-4-(3,5-dimethylisoxazol-4-yl)-N^1-phenylbenzene-1,3-diamine] | 0.83 µM | 0.59 µM |
| Fc1ccc(CNc2ccc(NCCn3cncn3)cn2)cc1 [SS20308-0246-01, N^5-(2-(1H-1,2,4-triazol-1-yl)ethyl)-N^2-(4-fluorobenzyl)pyridine-2,5-diamine] | 0.51 µM | 0.08 µM |
| c1ccc(CNc2cnc(-c3ccccc3)c(NCCn3cncn3)c2)cc1 [SS20308-0219-01, N^3-(2-(1H-1,2,4-triazol-1-yl)ethyl)-N^5-benzyl-2-phenylpyridine-3,5-diamine] | 4.78 µM | 2.68 µM |
| c1ccc(Nc2ccc(-c3cccs3)c(NCCn3cncn3)c2)cc1 [SS20308-0193-01, N^3-(2-(1H-1,2,4-triazol-1-yl)ethyl)-N^1-phenyl-4-(thiophen-2-yl)benzene-1,3-diamine] | 0.28 µM | 0.14 µM |
| c1ccc(Nc2cccc(NCCn3cncn3)c2)cc1 [SS20308-0223-01, N^1-(2-(1H-1,2,4-triazol-1-yl)ethyl)-N^3-phenylbenzene-1,3-diamine] | 0.49 µM | 0.11 µM |
| CN(CCn1cncn1)c1cccc(Nc2ccc(F)cc2)c1 [SS20308-0252-01, N^1-(2-(1H-1,2,4-triazol-1-yl)ethyl)-N^3-(4-fluorophenyl)-N^1-methylbenzene-1,3-diamine] | 1.09 µM | 0.26 µM |
